Results on 5 compounds are retold here after publication PMC8958501, “Hypothesis-Driven, Structure-Based Design in Photopharmacology: The Case of eDHFR Inhibitors” (Journal of Medicinal Chemistry, 2022).

Read-outs that look alike come from different tables or passages of the source. Where only a bound is given, the exact number is not on record here.

Series [1] can be described thus: Fatigue studies: repeated photoisomerization in the presence of GSH. The format is physicochemical. The settings on record: eDHFR assay buffer, 10 mM GSH. On the procedure: (§1) UV–vis absorption spectra were recorded on an Agilent 8453 UV–vis Spectrophotometer. Photochemical isomerization (photoswitching) was achieved by irradiation from the side in a fluorescence quartz cuvette (width = 1.0 cm) using a custom-built (Prizmatix/Mountain Photonics) multiwavelength fiber coupled LED system (FC6-LED-WL) including the following LEDs: 365A, 390B, 420Z, 445B, 535R, 630CA. A detailed description of the setup was published by us recently.[84] Alternatively, the samples were irradiated at 340 nm using the LOT Quantum design setup with 300 W Xe-Arc lamp, using the Thorlabs FB340-10 Bandpass filter. A Quantum Northwest TC1 temperature controller was used to maintain the temperature at 25 °C during photochemical studies. To analyze the fatigue resistance of the compounds, repeated irradiation cycles were performed using alternating wavelengths. The decrease and increase of the π–π* transition band was followed by UV–vis spectroscopy (Agilent 8453) at 25 °C while stirring. To determine the thermal lifetime for the metastable cis isomer, samples were irradiated with the custom-built setup until photostationary state (PSS) was reached. Then, the cuvettes were placed in a JASCO V750 spectrophotometer with a PTC 424S/15 temperature controller, and the recovery of the π–π* transition was followed while stirring at 25 °C (for solutions in DMSO and eDHFR assay buffer) or 37 °C (for solutions in 10 mM Tris-HCl buffer pH 7.0). The data were fitted using a first-order exponential function in OriginPro 2018. For the PSD determination by ^1H NMR spectroscopy, 0.5 mL of a 2 mM solution of the respective compound in DMSO-d6 was thermally equilibrated by briefly (∼10 s) heating the sample with a heat gun. Subsequently, the sample was irradiated in a glass NMR tube with a 365 nm hand-held lamp (Spectroline ENB-280C) or the LEDs of the custom-built setup. Detailed data are reported in the SI.

The target of the next series is T1, eDHFR (Escherichia coli, UniProt P0ABQ4).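 Further: purified E. coli DHFR colorimetric assay, enzyme with NADPH 3 min then inhibitor (10^-12 to 10^-5 M) 7 min, rate ΔAbs/s relative to DMSO control (1% v/v), triplicates.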
T1 construct: made in house; host or cells: E. cloni EXPRESS BL21 (DE3) cells (Lucigen), pT7-SC1 plasmid
Kind of series: biochemical. Conditions: for light-induced change in eDHFR inhibition (dark IC50 vs irradiated IC50): irradiation with λ1 = 365 nm.

Series [2] is described as follows: Solubility in eDHFR assay buffer. The format is physicochemical. The settings on record: aqueous with cosolvent or surfactant or cyclodextrin, with 20% DMSO as an additive.
Series [3] in a line: Thermal cis-to-trans isomerization (thermal half-life of the metastable cis isomer). The format is physicochemical. Conditions: for thermal lifetime t1/2: at 25 and 37 °C; for t1/2 DMSO (25 °C): thermal cis-to-trans isomerization, 20 µM. On the procedure:
as §1

The next series has as its system E. coli CS1562. Kind of series: Antibacterial activity assay (MIC, bacterial growth curves). Conditions: for MIC: Escherichia coli, E. coli CS1562, 24 h; for MIC / bacterial growth inhibition, same in both forms: both before and after irradiation with λ1 = 365 nm. The format is cell-based, Escherichia coli. As for the experimental part: A culture of E. coli CS1562 was grown overnight in LB medium (10 g/L tryptone, 5 g/L yeast extract, 5 g/L NaCl) containing tetracycline (10 μg/mL) at 37 °C. The OD600 was measured, and the culture was diluted to 0.002 OD600 in LB medium. Series dilutions of the compounds were prepared in DMSO and diluted 25 times in sterile LB medium in a black sterile Eppendorf tube. […] Subsequently, the dark samples were added to the 96-well plate (100 μL, triplicates). Lastly, the LB medium containing E. coli CS1562 at 0.002 OD was added to every well (100 μL). The cells were grown overnight at 37 °C in a plate reader (Synergy H1, Biotek), and the OD600 was measured every 10 min with a 10 s shaking step before each measurement. The OD600 curves were background-corrected by subtracting the value at t = 0. […] Detailed data are reported in the SI.

Setting [4] is: IC50 Dark, dark-adapted (thermally adapted, trans isomer).
The mark [5] stands for this setting: after irradiation, read-out: DHFR inhibition IC50 (nM) after irradiation.
The mark [6] stands for this setting: irradiated to PSS with λ1 (340 nm for 3, 365 nm for 6-15), read-out: IC50 Light.
Setting [7] is: irradiated with λ1 (1: continuous irradiation at 390 nm), read-out: IC50 Light.
The mark [8] stands for this setting: light or radiation study, after irradiation with λ1 = 365 nm, read-out: MIC Light.
[9] abbreviates: light or radiation study, after irradiation, read-out: MIC (µM) after irradiation.
Where [10] appears, read: light or radiation study, before irradiation, read-out: MIC (µM) before irradiation.
The mark [11] stands for this setting: before irradiation, read-out: DHFR inhibition IC50 (nM) before irradiation.

T1 sequence (P0ABQ4 whole entry): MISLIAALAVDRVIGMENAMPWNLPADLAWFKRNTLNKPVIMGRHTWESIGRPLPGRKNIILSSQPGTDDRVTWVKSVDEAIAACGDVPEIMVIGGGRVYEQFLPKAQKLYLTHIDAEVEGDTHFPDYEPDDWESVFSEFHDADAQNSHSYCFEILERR

As a reminder, the IC50 is the concentration that gives 50% inhibition. As usually defined, the melting point is the temperature of the solid-liquid transition. The term solubility denotes the dissolved amount per volume that the medium holds. What is called MIC is the smallest concentration in the dilution series that meets the test's criterion for growth inhibition. Compound `COC(C)(C#Cc1cnc(N)nc1N)c1ccc(/N=N/c2ccccc2)cc1` (stereo not drawn) [Compound 6, (E)-5-{3-Methoxy-3-[4-(phenyldiazenyl)phenyl]but-1-yn-1-yl}pyrimidine-2,4-diamine] came in with a melting point of 149 to 150 °C. The “fatigue / resistance to reduction upon repeated irradiation cycles” value in series [1] was “robust photoswitching”. The midpoint of inhibition at eDHFR (setting [4]), the IC50, lay at 370 nM. The IC50 on eDHFR (setting [5]) amounted to 160 ± 62 nM. Further, the IC50 on eDHFR (setting [6]) came out at 160 ± 62 nM. The half-inhibitory concentration (IC50) on eDHFR (setting [7]) came out at 160 nM. Besides, the “light-induced change in eDHFR inhibition (dark IC50 vs irradiated IC50)” value (“light-induced change in eDHFR inhibition” for short) on eDHFR was determined as 2 fold. In series [2], this compound showed a solubility not above 5 µM. Besides, in series [3], the “thermal lifetime t1/2” value was more than 24 h and the “t1/2 DMSO (25 °C)” value was more than 24 h. Also, the MIC in the series on E. coli CS1562 (setting [8]) amounted to 20 µM. Moreover, in the series with E. coli CS1562 (setting [9]), the MIC worked out at 20 µM. The MIC in the series with E. coli CS1562 (setting [10]) is more than 40 µM. Moreover, the MIC in the series with E. coli CS1562 (dark, read-out: MIC Dark) is more than 40 µM. Further, the “light-induced difference in antibacterial activity (dark MIC vs irradiated MIC)” value in the series on E. coli CS1562 (irradiation with λ1 = 365 nm, E. coli CS1562) is more than 2 fold.
With `COc1ccc(/N=N/c2ccc(C(C)(C#Cc3cnc(N)nc3N)OC)cc2)cc1` (stereo not drawn) [Compound 8, (E)-5-{3-Methoxy-3-[4-((4-methoxyphenyl)diazenyl]phenyl}but-1-yn-1-yl)pyrimidine-2,4-diamine], the melting point is 186 to 189 °C. Also, at eDHFR (DHFR inhibition IC50 (nM) before irradiation, before irradiation), inhibition was half-maximal at 330 ± 190 nM (IC50). This compound returned an IC50 against eDHFR (setting [4]) of 330 ± 190 nM. Moreover, the IC50 on eDHFR (setting [5]) came out at 200 ± 77 nM. The IC50 on eDHFR (setting [6]) worked out at 200 ± 77 nM. On eDHFR (setting [7]), the IC50 came out at 200 nM. Moreover, the “t1/2 DMSO (25 °C)” value in series [3] is more than 24 h. For the same compound, the MIC in the series with E. coli CS1562 (setting [8]) is more than 80 µM. Besides, the minimal inhibitory concentration (MIC) in the series with E. coli CS1562 (setting [9]) was more than 80 µM. Moreover, in the series with E. coli CS1562 (setting [10]), the minimum inhibitory concentration (MIC) is more than 80 µM. The MIC with E. coli CS1562 (dark, read-out: MIC Dark) is more than 80 µM. Besides, the “MIC / bacterial growth inhibition, same in both forms” value in the series with E. coli CS1562 (E. coli CS1562) was more than 80 µM.
For `Nc1ncc(-c2cccc(/N=N/c3ccccc3)c2)c(N)n1` [Compound 3, (E)-5-[3-(Phenyldiazenyl)phenyl]pyrimidine-2,4-diamine], the melting point lay in the range of 209 to 211 °C. Further, the “fatigue / resistance to reduction upon repeated irradiation cycles” value in series [1] is recorded as “no sign of fatigue”. Besides, it took 280 nM to reach half-maximal inhibition at eDHFR (setting [4]) (IC50). Further, the IC50 on eDHFR (setting [6]) is 710 nM. Further, the “t1/2 DMSO (25 °C)” value in series [3] is more than 24 h.
`COC(C)(C#Cc1cnc(N)nc1N)c1ccc(/N=N/c2ccc(Cl)c(C(=O)O)c2)cc1` (stereo not drawn) [Compound 13, (E)-2-Chloro-5-{[4-(4-(2,4-diaminopyrimidin-5-yl)-2-methoxybut-3-yn-2-yl)phenyl]diazenyl}benzoic acid]: the melting point was 212 °C (dec.). For the same compound, the IC50 on eDHFR (setting [5]) was determined as 29 ± 8.6 nM. The IC50 on eDHFR (setting [11]) was found to be 28 ± 4.8 nM. In addition, at eDHFR, the “light-induced change in eDHFR inhibition” value is reported as “no difference in activity”. In series [3], the “t1/2 DMSO (25 °C)” value is reported as more than 24 h. The MIC in the series on E. coli CS1562 (setting [8]) was 80 µM. Also, the MIC in the series on E. coli CS1562 (setting [9]) was 80 µM. Moreover, the MIC in the series on E. coli CS1562 (setting [10]) turned out to be 40 µM. Besides, the MIC with E. coli CS1562 (dark, read-out: MIC Dark) turned out to be 40 µM.
`COC(C)(C#Cc1cnc(N)nc1N)c1cccc(/N=N/c2ccccc2)c1` (stereo not drawn) [Compound 7, (E)-5-{3-Methoxy-3-[3-(phenyldiazenyl)phenyl]but-1-yn-1-yl}pyrimidine-2,4-diamine]: the melting point was in the range of 105 to 107 °C. The “fatigue / resistance to reduction upon repeated irradiation cycles” value in series [1] is on record as “robust photoswitching”. Also, the IC50 on eDHFR (setting [5]) came to 250 ± 140 nM. Further, the IC50 on eDHFR (setting [11]) worked out at 190 ± 40 nM. Further, on eDHFR, the “light-induced change in eDHFR inhibition” value is given as “not significant”. The same compound had a solubility in series [2] not above 5 µM. Also, in series [3], the “thermal lifetime t1/2” value was more than 24 h and the “t1/2 DMSO (25 °C)” value is given as more than 24 h. Also, the MIC in the series on E. coli CS1562 (setting [8]) came out at 20 µM. The MIC in the series with E. coli CS1562 (setting [9]) was 20 µM. Also, in the series with E. coli CS1562 (setting [10]), the MIC amounted to 20 µM. Further, the MIC with E. coli CS1562 (dark, read-out: MIC Dark) was 20 µM. Further, the “MIC / bacterial growth inhibition, same in both forms” value in the series with E. coli CS1562 (E. coli CS1562) came to 20 µM.
